Experiment [1] has as its system Pseudomonas aeruginosa (12 isolates from Cystic Fibrosis patients), planktonic bacteria. The experiment can be described thus: Planktonic susceptibility to antibiotics and antibiotic combinations (challenge plate), 24 h exposure. Type of experiment: cell-based.
The subject of experiment [2] is Biofilms of Pseudomonas aeruginosa (12 isolates from Cystic Fibrosis patients). The experiment can be described thus: Biofilm susceptibility to antibiotics and antibiotic combinations (peg lid device), 24 h exposure. Type of experiment: cell-based. The conditions noted are these: count apparently resistant isolates of 12.
The test system of experiment [3] is P. aeruginosa ATCC 27853 biofilms. The experiment can be described thus: Peg lid biofilm susceptibility testing, qualitative (MBEC) and quantitative (MBIC, MBCB) end points. Type of experiment: cell-based, Pseudomonas aeruginosa. As for the experimental part:
Qualitative end points. According to CLSI standards % the MIC is defined as the lowest concentration of an antimicrobial agent that prevents visible growth in the challenge medium after a set period of incubation. By contrast, the MBEC is defined as the lowest concentration of antimicrobial agent that prevents visible growth from occurring in the recovery medium used to collect biofilm cells^17. The MBEC can be determined using the protocol presented here, and is measured after the recovery medium has been incubated for a suitable period of time, the length of which depends on the growth rate of the microorganism. Quantitative end points. […] This definition can be extended to both planktonic and biofilm cells and these end points will be denoted as the MBCP and MBCB, respectively. […] The technique presented here allows the MBCB or MLCB to be calculated. Another measure of biofilm susceptibility that has been proposed is the minimum biofilm inhibitory concentration (MBIC)^38,39. Here, the MBIC is defined as the lowest concentration of an antimicrobial at which there is no time-dependent increase in biofilm MVCC when an early exposure time is compared with a later exposure time. The MBIC thus corresponds to the intersecting point of two concentration-dependent killing curves, and therefore, it is possible to distinguish between biofilm resistance and tolerance on the basis of VCC (FIG. 8). (iii) Read the OD of the microtiter plate wells at 650 nm using the microtiter plate reader and visually inspect the wells for growth. […] (viii) Score the spot plates for growth by colony counting using the same approach described in Step 8. Determine the mean VCCs and SD for the broth culture using equations (2) and (3). Calculate biofilm mean log-killing and SD using equation (5). […] The biofilms were then exposed to gentamicin for either 2 or 20 hours; qualitative and quantitative determinations of biofilm cell survival were then performed. For ease of understanding, we focus on a single antibiotic.

Setting [4] is: 12 isolates from Cystic Fibrosis patients, 24 hours exposure, count apparently resistant isolates of 12.

Where two headings read alike, the source gives them in different places.

`NCC[C@H](O)C(=O)N[C@@H]1C[C@H](N)[C@@H](O[C@H]2O[C@H](CN)[C@@H](O)[C@H](O)[C@H]2O)[C@H](O)[C@H]1O[C@H]1O[C@H](CO)[C@@H](O)[C@H](N)[C@H]1O` [AK, Amikacin]: in experiment [1] (setting [4]), the “Pseudomonas resistance to individual antibiotics and antibiotic combinations, Planktonic” value (“Pseudomonas resistance … Planktonic” for short) was determined as 8. The “Pseudomonas resistance to individual antibiotics and antibiotic combinations, Biofilm” value (from here on “Pseudomonas resistance … Biofilm”) in experiment [2] is on record as 11.
On to `C[C@H]1[C@H](NC(=O)/C(=N\OC(C)(C)C(=O)O)c2csc(N)n2)C(=O)N1S(=O)(=O)O` [AZTR, Aztreonam], for which the “Pseudomonas resistance … Planktonic” value in experiment [1] was 0.
For the compound `CC(C)(O/N=C(\C(=O)N[C@@H]1C(=O)N2C(C(=O)[O-])=C(C[n+]3ccccc3)CS[C@H]12)c1csc(N)n1)C(=O)O` [CFTZ, Ceftazidime], the “Pseudomonas resistance … Planktonic” value in experiment [1] (setting [4]) is 3. The “Pseudomonas resistance … Biofilm” value in experiment [2] is recorded as 12.
As for `O=C(O)c1cn(C2CC2)c2cc(N3CCNCC3)c(F)cc2c1=O` [CIPRO, Ciprofloxacin], the “Pseudomonas resistance … Planktonic” value in experiment [1] is 4.
`C[C@@H](O)[C@H]1C(=O)N2C(C(=O)O)=C(SCCN=CN)C[C@H]12` [IMP]: in experiment [1] (setting [4]), the “Pseudomonas resistance … Planktonic” value is given as 12. Moreover, the “Pseudomonas resistance … Biofilm” value in experiment [2] was 12.
Regarding `NC[C@H]1O[C@H](O[C@H]2[C@H](O)[C@@H](O[C@H]3O[C@H](CO)[C@@H](O)[C@H](N)[C@H]3O)[C@H](N)C[C@@H]2N)[C@H](N)C[C@@H]1O` [TB, Tobramycin], the “Pseudomonas resistance … Planktonic” value in experiment [1] (setting [4]) is 3. Further, the “Pseudomonas resistance … Biofilm” value in experiment [2] came to 12.
As to gentamicin, in experiment [1] (setting [4]), the “Pseudomonas resistance … Planktonic” value worked out at 8. Moreover, the “Pseudomonas resistance … Biofilm” value in experiment [2] is recorded as 12. The MBCB is more than 512 µg/mL in experiment [3] (2 h exposure) and 512 µg/mL in experiment [3] (20 h exposure). The same compound registered an MBEC in experiment [3] (exposed for 2 or 20 hours, biofilms grown in LB broth) of more than 512 µg/mL. This compound also had an MBIC in experiment [3] (from VCC, 2 h compared with 20 h exposure) of 128 µg/mL.

Values taken from patent US20120329675A1, “Testing of Biofilm for Anti-microbial Agent Susceptibility” (priority 2009, published 2012).
